The test system of data set [1] is HeLa. In words: Induction of autophagy mediated Halotag-fused EGFP (unknown origin) degradation expressed in human HeLa cells assessed as reduction in EGFP-HT substrate level at 0.1 to 10 uM measured after 24 hrs by fluorescence microscopic analysis. The data set is classed as cell-based. To be noted: dose 0.1-10 µM.
For data set [2], the system named is HeLa. In words: Induction of autophagy mediated Halotag-fused EGFP (unknown origin) degradation expressed in human HeLa cells assessed as reduction in EGFP-HT substrate level at 0.01 to 1 uM measured after 24 hrs by fluorescence microscopic analysis. To be noted: dose 0.01-1 µM. The format is cell-based.
Data set [3] relates to MEF. In words: Induction of EGFP-tagged FKBP12 degradation in […] MEF cells assessed as reduction in FKBP12 level incubated for 48 hrs by immunoblot analysis. The data set is classed as cell-based. The note with it: Mus musculus. In general terms: Immunoblotting shows a protein as a band on a membrane.
Data set [4] concerns HeLa. In words: Induction of EGFP-tagged FKBP12 degradation in human HeLa cells assessed as reduction in FKBP12 protein level at 1 to 10 uM incubated for 48 hrs in presence of 100 uM 8H-FBnG by immunoblot analysis. The data set is classed as cell-based. To be noted: dose 1-10 µM.
Data set [5] has as its system HeLa. In words: Induction of EGFP-tagged FKBP12 degradation in human HeLa cells assessed as protein knockdown at 1 uM incubated for 48 hrs by immunoblot analysis. The format is cell-based.
The subject of data set [6] is HeLa. In words: Induction of EGFP-tagged FKBP12 degradation in human HeLa cells assessed as reduction in FKBP12 protein level at 0.001 to 10 uM incubated for 48 hrs in presence of bafilomycin Al treated for last 12 hrs by immunoblot analysis. The data set is classed as cell-based. To be noted: dose 0.001-10 µM.
The test system of data set [7] is MEF. In words: Induction of EGFP-tagged FKBP12 degradation in p62-/- MEF cells assessed as reduction in FKBP12 level incubated for 48 hrs by immunoblot analysis. The format is cell-based. The note with it: Mus musculus.
The subject of data set [8] is HeLa. In words: Effect on FKBP12 mRNA transcription level in human HeLa cells at 0.1 to 10 uM incubated for 48 hrs by RT-PCR analysis. The format is functional, cell-based. To be noted: dose 0.1-10 µM.
Data set [9] has as its system HeLa. In words: Induction of autophagy mediated Halotag-fused EGFP (unknown origin) degradation expressed in human HeLa cells assessed as reduction in EGFP-HT substrate level measured after 24 hrs by fluorescence microscopic analysis. The data set is classed as cell-based. To be noted: dose 1-10 µM.
Data set [10] concerns MEF. In words: Induction of autophagy mediated Halotag-fused EGFP (unknown origin) degradation transiently expressed in Atg5+/+ MEF cells assessed as reduction in EGFP-HT substrate level at 1 uM measured after 24 hrs by fluorescence microscopic analysis. The format is cell-based.
The test system of data set [11] is HeLa. In words: Induction of autophagy mediated Halotag-fused EGFP (unknown origin) degradation expressed in human HeLa cells assessed as reduction in EGFP-HT substrate level at 1 to 10 uM measured after 12 to 24 hrs by fluorescence microscopic analysis. The format is cell-based. To be noted: dose 1-10 µM, time 12-24 hrs.
Data set [12] relates to MEF. In words: Induction of autophagy mediated Halotag-fused EGFP (unknown origin) degradation transiently expressed in Atg5-/- MEF cells assessed as reduction in EGFP-HT substrate level at 1 uM measured after 24 hrs by fluorescence microscopic analysis. The format is cell-based.
Data set [13] has as its system HeLa. In words: Induction of autophagy mediated Rosella/Halotag-fused EGFP (unknown origin) degradation expressed in human HeLa cells assessed as lysosomal degradation of EGFP-HT substrate at 1 uM incubated for 24 hrs by fluorescence microscopic analysis. The data set is classed as cell-based.
Data set [14] has as its system HeLa. In words: Induction of autophagy mediated Halotag-fused EGFP (unknown origin) degradation expressed in human HeLa cells assessed as reduction in EGFP-HT substrate level at <1 uM measured after 24 hrs by fluorescence microscopic analysis. The format is cell-based.
The subject of data set [15] is HeLa. In words: Cytotoxicity against human HeLa cells expressing Halotag-fused EGFP assessed as reduction in cell survival rate at 0.001 to 100 uM. The data set is classed as toxicity, cell-based. The note with it: dose 0.001-100 µM.
Data set [16] concerns HeLa. In words: Induction of autophagy mediated Halotag-fused EGFP (unknown origin) degradation expressed in human HeLa cells assessed as reduction in EGFP-HT substrate level at 1 uM incubated for 24 hrs in presence of bafilomycin Al by fluorescence microscopic analysis. The data set is classed as cell-based.

The structures appear in SMILES notation. Active and inactive are the calls of the source. No cut-off for these calls is given here.

The values that follow come from ChEMBL document CHEMBL5321274, “Second-Generation AUTACs for Targeted Autophagic Degradation” (J Med Chem, 2023).

On to `Fc1ccc(Cn2ccnc2-c2cnn(CCOCCOCCOCCOCCOCCCCCCCl)c2)cc1`, for which, in the data set on HeLa [1], the result was inactive.
For the compound `CC(=O)NC(CSc1nc2c(=O)[nH]c(N)nc2n1Cc1ccc(C#N)cc1)C(=O)NCCOCCOCCOCCOCCOCCCCCCCl` (single isomer, unassigned), the result with HeLa [2] was inactive.
Regarding `Nc1nc2c(nc(-c3cn(CCOCCOCCOCCOCCOCCCCCCCl)nn3)n2Cc2ccc(F)cc2)c(=O)[nH]1`, the result in the data set with HeLa [2] was Active.
Turning to `Cn1c(=O)c2nc(-c3cnn(CCOCCOCCOCCOCCOCCCCCCCl)c3)n(Cc3ccc(F)cc3)c2n(C)c1=O`, in the data set with HeLa [1], the outcome was inactive.
With `Nc1nc2c(nc(-c3cccc(OCCOCCOCCOCCOCCOCCCCCCCl)c3)n2Cc2ccc(F)cc2)c(=O)[nH]1`, the outcome with HeLa [2] was Active.
`CC(=O)NC(CSc1nc2c(=O)[nH]c(N)nc2n1Cc1cccc(F)c1)C(=O)NCCOCCOCCOCCOCCOCCCCCCCl` (single isomer, unassigned): the result in the data set with HeLa [2] was inactive.
In the case of `Fc1ccc(Cn2c(-c3cnn(CCOCCOCCOCCOCCOCCCCCCCl)c3)nc3ccccc32)cc1`, in the data set with HeLa [1], the outcome was inactive.
On to `CC(=O)NC(CSc1nc2c(=O)[nH]c(N)nc2n1Cc1ccc(S(C)(=O)=O)cc1)C(=O)NCCOCCOCCOCCOCCOCCCCCCCl` (single isomer, unassigned), for which the result in the data set with HeLa [2] was inactive.
`CCC(C)(C)C(=O)C(=O)N1CCCC[C@H]1C(=O)O[C@H](CCc1ccc(OC)c(OC)c1)c1cccc(NC(=O)CCC(=O)NCCCOCCOCCOCCCn2cc(-c3nc4c(=O)[nH]c(N)nc4n3Cc3ccc(F)cc3)cn2)c1`: the result in the data set with MEF [3], in the data set on HeLa [4], in the data set on HeLa [6], in the data set with MEF [7] and in the data set on HeLa [8] was inactive. In addition, the outcome in the data set on HeLa [5] was Active.
For `COc1ccc(Cn2c(SCC(NC(C)=O)C(=O)NCCOCCOCCOCCOCCOCCCCCCCl)nc3c(=O)[nH]c(N)nc32)cc1` (single isomer, unassigned), the outcome in the data set on HeLa [2] was inactive.
With `Nc1nc2c(nc(-c3ccc(OCCOCCOCCOCCOCCOCCCCCCCl)cc3)n2Cc2ccc(F)cc2)c(=O)[nH]1`, the result in the data set with HeLa [2] was Active.
Still for that read-out and setting: the result for `CC(=O)NC(CSc1nc2c(=O)[nH]c(N)nc2n1Cc1ccc(C)cc1)C(=O)NCCOCCOCCOCCOCCOCCCCCCCl` (single isomer, unassigned) reads “inactive”.
`CC(=O)NC(CSc1nc2c(=O)[nH]c(N)nc2n1Cc1ccccc1F)C(=O)NCCOCCOCCOCCOCCOCCCCCCCl` (single isomer, unassigned): the result with HeLa [2] was inactive.
In the case of `CC(=O)NC(CSc1nc2c(=O)[nH]c(N)nc2n1Cc1ccc(Cl)cc1)C(=O)NCCOCCOCCOCCOCCOCCCCCCCl` (single isomer, unassigned), in the data set with HeLa [9], the Activity result is “Dose-Dependent Effect”.
As for `CC(=O)NC(CSc1nc2c(=O)[nH]c(N)nc2n1Cc1ccccc1)C(=O)NCCOCCOCCOCCOCCOCCCCCCCl` (single isomer, unassigned), in the data set with HeLa [2], the result was inactive.
On to `Nc1nc2c(nc(-c3cnn(CCOCCOCCOCCOCCOCCCCCCCl)c3)n2Cc2ccc(F)cc2)c(=O)[nH]1`, for which the outcome in the data set on HeLa [2], in the data set with MEF [10], in the data set on HeLa [11], with HeLa [13] and in the data set with HeLa [14] was Active. The outcome in the data set with MEF [12] and in the data set with HeLa [16] was inactive. For the same compound, in the data set on HeLa [15], the Activity entry was “Non-Toxic”.
For the compound `O=c1[nH]cnc2c1nc(-c1cnn(CCOCCOCCOCCOCCOCCCCCCCl)c1)n2Cc1ccc(F)cc1`, the result with HeLa [1] was inactive.
Still for that read-out and setting: the result for `Nc1ncnc2c1nc(-c1cnn(CCOCCOCCOCCOCCOCCCCCCCl)c1)n2Cc1ccc(F)cc1` reads “inactive”.
